Data: ChEMBL document CHEMBL1201862, “PubChem BioAssay data set” (2004)
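Cells were grown in 96-well plates and exposed to each compound for 48 hours at five concentrations; endpoints were interpolated linearly between bracketing concentrations, or set to the highest concentration if not reached. GI50: concentration for 50% inhibition of growth.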 The source made the active and inactive calls. No stated cut-off is given here; in the data, active = GI50 up to about 1.1 µM and inactive = higher.

How the values were obtained:
Experiment in all cases: growth of human tumour cells (NCI), 48 h
IGROV-1 = system: IGROV-1
SF-539 = system: SF-539
SF-295 = system: SF-295
EKVX = system: EKVX
OVCAR-4 = system: OVCAR-4
M14 = system: M14
COLO 205 = system: COLO 205
NCI-H522 = system: NCI-H522
SR = system: SR
Malme-3M = system: Malme-3M
UACC-62 = system: UACC-62
SNB-75 = system: SNB-75
HOP-62 = system: HOP-62
ACHN = system: ACHN
HT-29 = system: HT-29
OVCAR-8 = system: OVCAR-8
A549 = system: A549
MDA-MB-435 = system: MDA-MB-435
T47D = system: T47D
MCF7 = system: MCF7

Measured: GI50

CC(=O)O[C@@H]1CC[C@@]2(C)C(=O)C34C[C@@]5(C)C([C@@H](C)CCCC(C)C)CCC5(C)[C@](O)(O3)C(=O)[C@H]4C2C1(C)C (some centres not stated)
inactive: IGROV-1 15.4 µM | SF-539 19.3 µM | SF-295 16.3 µM | EKVX 18.4 µM | OVCAR-4 13.2 µM | M14 13.1 µM | COLO 205 14.5 µM | NCI-H522 12.3 µM | SR 16 µM | Malme-3M 18.5 µM | UACC-62 18.2 µM | SNB-75 15.7 µM | HOP-62 17.7 µM | ACHN 14 µM | HT-29 13 µM | OVCAR-8 16.5 µM | A549 13.3 µM

CCCCCC(=O)N[C@H]1CCc2cc(O)c(O)c(O)c2-c2ccc(SC)c(=O)cc21
inactive: IGROV-1 38.4 µM | SF-539 20.9 µM | SF-295 23.4 µM | EKVX > 63.1 µM | OVCAR-4 18.1 µM | M14 19 µM | COLO 205 23.3 µM | NCI-H522 15.1 µM | SR 22.8 µM | Malme-3M > 80.5 µM | UACC-62 31.6 µM | SNB-75 32.2 µM | HOP-62 47 µM | ACHN > 100 µM | HT-29 32.7 µM | OVCAR-8 26.1 µM | A549 36.7 µM

Cc1ccc(NC(=O)C2C3CCC(O3)C2C(=O)O)cc1 (configuration not stated)
inactive: IGROV-1 > 100 µM | SF-539 > 57.7 µM | SF-295 > 95.9 µM | EKVX > 94.4 µM | OVCAR-4 > 100 µM | M14 > 49.4 µM | COLO 205 35.7 µM | NCI-H522 43.6 µM | SR 15.7 µM | Malme-3M > 100 µM | UACC-62 > 46.6 µM | SNB-75 31.9 µM | HOP-62 > 100 µM | ACHN > 93.5 µM | HT-29 > 45 µM | OVCAR-8 > 100 µM | A549 > 76.2 µM

C=CCCCC(C#N)(c1ccccc1)N1CCCC1 (configuration not stated)
inactive: IGROV-1 > 100 µM | SF-539 > 100 µM | SF-295 > 100 µM | EKVX > 100 µM | OVCAR-4 > 100 µM | M14 > 100 µM | COLO 205 > 100 µM | NCI-H522 > 100 µM | SR > 100 µM | Malme-3M > 100 µM | UACC-62 > 100 µM | SNB-75 > 100 µM | HOP-62 > 100 µM | ACHN > 100 µM | HT-29 > 100 µM | OVCAR-8 > 100 µM | A549 > 100 µM

Cc1cccc(C(C)C)c1NC(=O)CCl
inactive: SF-539 > 100 µM | SF-295 92 µM | EKVX 20.6 µM | OVCAR-4 29.4 µM | M14 65.8 µM | COLO 205 86.9 µM | NCI-H522 15.3 µM | SR 47.8 µM | Malme-3M 81.7 µM | UACC-62 24.4 µM | SNB-75 33.7 µM | HOP-62 41.9 µM | ACHN 73.3 µM | HT-29 49.1 µM | A549 > 100 µM

Cn1c(=O)c2c3ccccc3c(C(=O)c3ccccc3)n2c2ccccc21
inactive: IGROV-1 > 100 µM | SF-539 16.3 µM | SF-295 5.69 µM | EKVX > 89.3 µM | OVCAR-4 22.6 µM | M14 8.55 µM | COLO 205 5.51 µM | NCI-H522 3.33 µM | SR 2.45 µM | Malme-3M 5.62 µM | UACC-62 4.02 µM | SNB-75 3.18 µM | HOP-62 > 42.8 µM | ACHN 24 µM | HT-29 3.63 µM | OVCAR-8 16.4 µM | A549 56.8 µM

NNC(=S)N1CCN(C(=S)NN)CC1
inactive: IGROV-1 43.4 µM | SF-295 > 100 µM | EKVX > 100 µM | MDA-MB-435 > 100 µM | OVCAR-4 28.8 µM | M14 13.7 µM | COLO 205 65.8 µM | NCI-H522 > 100 µM | SR > 100 µM | Malme-3M > 100 µM | UACC-62 > 100 µM | SNB-75 > 100 µM | HOP-62 > 100 µM | T47D > 100 µM | ACHN > 100 µM | HT-29 > 100 µM | A549 > 100 µM

Nc1nc(N)c2c(-c3ccccc3)ccnc2n1
inactive: IGROV-1 > 100 µM | SF-295 > 100 µM | EKVX 18.5 µM | MDA-MB-435 > 100 µM | OVCAR-4 > 100 µM | COLO 205 > 100 µM | NCI-H522 > 100 µM | SR > 100 µM | Malme-3M > 100 µM | UACC-62 > 100 µM | MCF7 > 100 µM | HOP-62 > 100 µM | ACHN > 100 µM | HT-29 > 100 µM

Cc1ccc(S(=O)(=O)OC(C=O)C(O)C(O)COC(c2ccccc2)(c2ccccc2)c2ccccc2)cc1 (configuration not stated)
inactive: IGROV-1 15.1 µM | SF-539 16.3 µM | SF-295 12.2 µM | EKVX 13.9 µM | OVCAR-4 18.2 µM | M14 16.1 µM | NCI-H522 13.1 µM | SR 5.43 µM | Malme-3M 19 µM | UACC-62 15.2 µM | SNB-75 14.9 µM | HOP-62 16.9 µM | ACHN 15.3 µM | HT-29 12.2 µM | OVCAR-8 13.6 µM | A549 18.2 µM

Cc1c(C(=O)C/C(=N/NC(=O)C[n+]2ccccc2)C(=O)Nc2ccccc2)[n+]([O-])c2ccccc2[n+]1[O-]
inactive: IGROV-1 > 100 µM | SF-539 > 100 µM | SF-295 > 100 µM | EKVX > 100 µM | OVCAR-4 > 100 µM | M14 > 100 µM | COLO 205 > 100 µM | NCI-H522 > 100 µM | SR 87.5 µM | Malme-3M > 100 µM | UACC-62 > 100 µM | SNB-75 > 100 µM | HOP-62 > 100 µM | ACHN > 100 µM | HT-29 > 100 µM | OVCAR-8 > 100 µM | A549 > 100 µM

C=C1CC(CCCl)(c2ccccc2)OC1=O (configuration not stated)
inactive: IGROV-1 > 100 µM | SF-539 27.9 µM | SF-295 > 100 µM | EKVX > 44 µM | OVCAR-4 > 100 µM | M14 19.5 µM | COLO 205 29 µM | NCI-H522 18.5 µM | SR 20.1 µM | Malme-3M 23.6 µM | UACC-62 48.4 µM | SNB-75 22.4 µM | HOP-62 > 100 µM | ACHN 32.5 µM | HT-29 33 µM | OVCAR-8 41.1 µM | A549 > 71.9 µM

NCC1CCCCC1.O=C(O)NCC1CCCCC1
inactive: IGROV-1 9.12 µM | SF-295 19.1 µM | EKVX 30.1 µM | MDA-MB-435 22.9 µM | OVCAR-4 35.6 µM | M14 36.6 µM | NCI-H522 10.7 µM | SR 23.4 µM | Malme-3M 2.29 µM | UACC-62 18.7 µM | SNB-75 13.7 µM | HOP-62 17.5 µM | ACHN 23.9 µM | HT-29 19.3 µM | OVCAR-8 13.2 µM | A549 30.1 µM

CC1=CC2=C(C#N)C(=O)OC2(C)C(c2ccccc2)C1 (configuration not stated)
inactive: IGROV-1 6.04 µM | SF-539 > 100 µM | SF-295 > 100 µM | EKVX > 100 µM | MDA-MB-435 > 100 µM | OVCAR-4 87.7 µM | M14 > 100 µM | NCI-H522 > 100 µM | Malme-3M > 100 µM | UACC-62 > 100 µM | SNB-75 16.2 µM | HOP-62 > 100 µM | ACHN > 100 µM | HT-29 > 100 µM | OVCAR-8 > 100 µM | A549 > 100 µM

Cc1cccc(C)c1NC(=O)CCCC(=O)C(C#N)c1ccc(Cl)cc1 (configuration not stated)
inactive: IGROV-1 > 100 µM | SF-539 > 100 µM | SF-295 > 100 µM | EKVX > 100 µM | OVCAR-4 > 100 µM | M14 > 100 µM | COLO 205 > 100 µM | NCI-H522 > 100 µM | SR > 100 µM | Malme-3M > 100 µM | UACC-62 > 100 µM | SNB-75 35.6 µM | HOP-62 > 100 µM | ACHN > 100 µM | HT-29 > 100 µM | OVCAR-8 > 100 µM | A549 > 100 µM

CSCC(COC(C)=O)(CSC)c1ccncc1
inactive: IGROV-1 > 100 µM | SF-539 > 100 µM | SF-295 > 100 µM | EKVX > 100 µM | OVCAR-4 > 100 µM | M14 > 100 µM | COLO 205 > 100 µM | NCI-H522 > 100 µM | SR > 100 µM | Malme-3M > 100 µM | UACC-62 > 100 µM | SNB-75 85.7 µM | HOP-62 > 100 µM | ACHN > 100 µM | HT-29 > 100 µM | OVCAR-8 > 100 µM | A549 > 100 µM

Cc1nc(N)nc(S)c1CCC(=O)O
inactive: IGROV-1 > 100 µM | SF-539 > 100 µM | SF-295 > 100 µM | EKVX > 100 µM | MDA-MB-435 > 100 µM | OVCAR-4 > 100 µM | M14 > 100 µM | COLO 205 > 100 µM | NCI-H522 > 100 µM | SR > 100 µM | Malme-3M > 100 µM | UACC-62 > 100 µM | MCF7 > 100 µM | HOP-62 > 100 µM | ACHN > 100 µM | HT-29 > 100 µM | OVCAR-8 > 100 µM | A549 > 100 µM

COc1c(OC)c(N)c2cc(C)c(=O)c(C)cc2c1N
inactive: IGROV-1 > 100 µM | SF-539 > 100 µM | SF-295 > 100 µM | EKVX > 100 µM | OVCAR-4 > 100 µM | M14 > 100 µM | COLO 205 35.4 µM | NCI-H522 96.8 µM | SR 12.4 µM | Malme-3M > 100 µM | UACC-62 > 100 µM | SNB-75 56.4 µM | HOP-62 > 100 µM | ACHN > 100 µM | HT-29 > 100 µM | OVCAR-8 > 100 µM | A549 > 100 µM
